# Measured values as given in patent US20240182525A1, “NOVEL BICYCLIC COMPOUND, OPTICAL ISOMER THEREOF OR PHARMACEUTICALLY ACCEPTABLE SALT THEREOF, USE THEREOF, AND PREPARATION METHOD THEREFOR” (KOREARESEARCH INSTITUTE OF BIOSCIENCE AND BIOTECHNOLOGY, priority 2021, published 2024).
# Columns and labels:
# [1] = tested on: osteogenic differentiation-related genes (mCol1a1, mOsteocalcin, mOsterix); experiment: RT-PCR of osteogenic differentiation-related genes; format: cell-based, mouse; details: Day 7 of differentiation, FIG. 17
# Text: In order to confirm the effect of the compound of Chemical Formula 1 according to the present invention on promoting osteogenic differentiation-related genes, the expression levels of genes promoting osteogenesis were confirmed.
# To confirm genetic changes during the differentiation process, total RNA was isolated on Day 7 of differentiation using Trizol reagent (Invitrogen, CA, USA) according to the manufacturer's instructions. The cultured cells were washed twice with cold PBS and lysed with 1 ml of Trizol reagent. To the resulting product, 200 μl of chloroform was added and mixed, followed by centrifugation at 4° C. and 12000 rpm for 20 minutes to separate the supernatant. The same amount of isopropanol was added to the separated supernatant, mixed, and centrifuged again at 4° C. and 12000 rpm. The supernatant was removed, and the remaining pellet was washed three times with 70% ethanol to separate RNA. For RT-PCR, the same amount of total RNA (5 μl) was put into the RT-PCR amplification kit and reacted at 45° C. for 60 minutes to prepare complementary DNA (cDNA). RT-PCR was performed on the cDNA by using AccuPower®RT/PCR PreMix (Bioneer, Korea). Briefly, 2 μl each of 75 mM rATP, rUTP, rCTP, rGTP, enzyme mixture, and 10× reaction buffer was added to 8 μl of the cDNA solution prepared above, followed by amplification according to the manufacturer's instructions, and the quantity and quality of the amplified mRNA was evaluated using nanodrops and 1% agarose gel electrophoresis.
# [2] = Cytotoxicity assay, 4T1; format: cell-based; details: mouse, 4T1 cells (breast cancer); 4T1, 48 hours, maximum concentration 100 μM
# Experimental: (§1) To measure the cytotoxicity of the compound represented by Chemical Formula 1 (Chemical Formula 1-1), toxicity was measured in mouse preadipocyte 3T3-L1 cell line, human malignant melanoma A375 cell line, mouse malignant melanoma B16F10 cell line, human oral cancer MDA-MB-435 cell line, mouse breast cancer 4T1 cell line, human breast cancer MCF7 cell line, human brain cancer U87MG cell line, human glioblastoma U373MG cell line, human cervical cancer HeLa cell line, mouse embryonic fibroblast (MEF) cell line, human embryonic kidney HEK293T cell line (Korea Cell Line Bank). First, 1×10^4 cells were divided into 200 μl each in a 96-well plate using Dulbecco's Modified Eagle's Medium (DMEM) supplemented with 10% fetal bovine serum (FBS), […] streptomycin, and 50 U/ml penicillin, while maintaining various cells at 37r in an atmosphere of 5% CO2. The cells were treated with the compound of Chemical Formula 1-1 of the present invention at a maximum concentration of 100 μM and cultured for 48 hours under the same culture conditions. After the incubation, the culture media were removed and the cytotoxicity test results were confirmed (Table 2 and FIG. 3 below).
# [3] = Cytotoxicity assay, HEK293T; format: cell-based; details: human, HEK293T cells (embryonic kidney), maximum concentration 100 μM
# Experimental: as §1
# [4] = Cytotoxicity assay, U87MG; format: cell-based; details: human, U87MG cells (brain cancer), maximum concentration 100 μM
# Experimental: as §1
# [5] = Cytotoxicity assay, 3T3-L1; format: cell-based; details: mouse, 3T3-L1 cells (preadipocytes); 3T3-L1, 48 hours, maximum concentration 100 μM
# Experimental: as §1
# [6] = tested on: C57BL/C6 mice; experiment: Blood obesity and liver damage markers in high calorie diet mice; format: in vivo, mouse; details: plasma, compared to high calorie control group, FIG. 13
# Experimental: Then, after the experiment was completed, the animal blood of each group was collected and centrifuged to separate plasma, and then representative obesity markers in the blood such as total cholesterol (tCHO), high density lipoprotein (HDL), and low density lipoprotein (LDL), and liver damage markers such as glutamic oxaloacetic transaminase (GOT) and glutamic pyruvic acid transaminase (GPT) were analyzed with a blood chemistry analyzer.
# [7] = tested on: β, a Wnt3a signaling protein; experiment: Western blotting of Wnt3a signaling protein in 3T3-L1; format: cell-based, mouse; details: 7.5 μM, 3T3-L1, western blotting, FIGS. 6 and 7
# Experimental: To confirm the Wnt3a signaling of Chemical Formula 1-1, the protein level of β, a Wnt3a signaling protein, was measured in the 3T3-L1 cell line. The 3T3-L1 cells were cultured in a 6-well plate (2×10^5 cell/well), and the next day, the cells were replaced with normal culture media (Undifferentiated media; UND) and differentiation induction media (Differentiation media; DM), respectively, followed by treatment with the compound of Chemical Formula 1-1 at 7.5 μM for 48 hours, and then the cells were replaced with new normal culture media (Maintaining media; MM). Here, the compound of Chemical Formula 1-1 at a concentration of 7.5 μM was cultured for 72 hours, followed by western blotting. In FIGS. 6 and 7, it was confirmed that the protein level of β increased in the treatment of the compound of Chemical Formula 1-1 alone and the treatment of Chemical Formula 1-1 and Wnt3a together.
# [8] = tested on: mouse 3T3-L1 cell line; experiment: Adipogenesis inhibitory effect test, Oil Red O staining; format: cell-based
# Experimental: The adipogenesis inhibitory activity of Chemical Formula 1 according to the present invention was measured through Oil Red O staining in mouse 3T3-L1 cell line. First, 3T3-L1 cells were placed in a 48-well plate (1×10^4 cell/well) and cultured for 24 hours in a 37° C. CO2 incubator. The next day, the cells were replaced with the normal culture media (Undifferentiated media; UND) and the differentiation induction medium (Differentiation media; DM), respectively, followed by treatment with 2.5-10 μM of Chemical Formula 1-1 for 48 hours. Then, the cells were replaced with the normal culture media (Maintainment media; MM), and cultured with 2.5-10 μM of Chemical Formula 1-1 for 72 hours, and then treated with Oil Red O.
# In addition, the same experiment was conducted with the compound of Chemical Formula 1-1 at a fixed concentration of 7.5 μM and Wnt3a-conditional media at 10-2.5%.
compound,measurement,setting,value
CC(C)CC1NC(=O)C2CCCN2C(=O)C(C(O)C(C)C)NC(=O)CNC(=O)C(C(C)O)NC(=O)C2NC(=O)C(NC(=O)/C=C/c3ccccc3C(O)C(C)O)C(C)OC(=O)C(CC(N)=O)NC(=O)C(NC(=O)C(O)NC1=O)C(O)c1ccc(O)c(c1)Oc1ccc2cc1 (stereo not shown) [Chemical Formula 1-1],mRNA expression level of mCol1a1,[1],increase
same,mRNA expression level of mOsteocalcin,[1],increase
same,mRNA expression level of mOsterix,[1],increase
same,IC50 at 48 h,[2],> 100 µM
same,IC50 at 48 h,[3],> 100 µM
same,IC50 at 48 h,[4],> 100 µM
same,IC50 at 48 h,[5],> 100 µM
same,glutamic oxaloacetic transaminase (GOT),[6],significantly reduced
same,glutamic pyruvic acid transaminase (GPT),[6],significantly reduced
same,high density lipoprotein (HDL),[6],increased
same,low density lipoprotein (LDL),[6],significantly reduced
same,total cholesterol (tCHO),[6],significantly reduced
same,protein level of β,[7]; compound alone,increased
same,protein level of β,[7]; together with Wnt3a,increased
same,adipogenesis inhibitory activity,"[8]; 2.5-10 μM, Oil Red O, FIG. 8",exhibited the adipogenesis inhibitory activity in a concentration-dependent manner
same,adipogenesis inhibitory activity,"[8]; fixed 7.5 μM with Wnt3a-conditional media at 10-2.5%, FIG. 9",excellent
